Laboratory results: patent US9650339B2, “Inhibitors of histone demethylases” (Gilead Sciences, Inc., priority 2013, dated 2017)
pIC50: −log10 of the molar value.

Columns and labels:
KDM3A (JMJD1A) = biological target: T1, KDM3A (JMJD1A) (Homo sapiens, UniProt Q9Y4C1); experiment: Histone lysine demethylase AlphaLISA assay, KDM3A; format: biochemical; details: read-out: KDM3 A HDME Inhibition IC50
T1 construct: 2-end; purchased BPS Bioscience, US; host or cells: Bac (baculovirus system)
T1 sequence (Q9Y4C1 2-1321 limits assumed): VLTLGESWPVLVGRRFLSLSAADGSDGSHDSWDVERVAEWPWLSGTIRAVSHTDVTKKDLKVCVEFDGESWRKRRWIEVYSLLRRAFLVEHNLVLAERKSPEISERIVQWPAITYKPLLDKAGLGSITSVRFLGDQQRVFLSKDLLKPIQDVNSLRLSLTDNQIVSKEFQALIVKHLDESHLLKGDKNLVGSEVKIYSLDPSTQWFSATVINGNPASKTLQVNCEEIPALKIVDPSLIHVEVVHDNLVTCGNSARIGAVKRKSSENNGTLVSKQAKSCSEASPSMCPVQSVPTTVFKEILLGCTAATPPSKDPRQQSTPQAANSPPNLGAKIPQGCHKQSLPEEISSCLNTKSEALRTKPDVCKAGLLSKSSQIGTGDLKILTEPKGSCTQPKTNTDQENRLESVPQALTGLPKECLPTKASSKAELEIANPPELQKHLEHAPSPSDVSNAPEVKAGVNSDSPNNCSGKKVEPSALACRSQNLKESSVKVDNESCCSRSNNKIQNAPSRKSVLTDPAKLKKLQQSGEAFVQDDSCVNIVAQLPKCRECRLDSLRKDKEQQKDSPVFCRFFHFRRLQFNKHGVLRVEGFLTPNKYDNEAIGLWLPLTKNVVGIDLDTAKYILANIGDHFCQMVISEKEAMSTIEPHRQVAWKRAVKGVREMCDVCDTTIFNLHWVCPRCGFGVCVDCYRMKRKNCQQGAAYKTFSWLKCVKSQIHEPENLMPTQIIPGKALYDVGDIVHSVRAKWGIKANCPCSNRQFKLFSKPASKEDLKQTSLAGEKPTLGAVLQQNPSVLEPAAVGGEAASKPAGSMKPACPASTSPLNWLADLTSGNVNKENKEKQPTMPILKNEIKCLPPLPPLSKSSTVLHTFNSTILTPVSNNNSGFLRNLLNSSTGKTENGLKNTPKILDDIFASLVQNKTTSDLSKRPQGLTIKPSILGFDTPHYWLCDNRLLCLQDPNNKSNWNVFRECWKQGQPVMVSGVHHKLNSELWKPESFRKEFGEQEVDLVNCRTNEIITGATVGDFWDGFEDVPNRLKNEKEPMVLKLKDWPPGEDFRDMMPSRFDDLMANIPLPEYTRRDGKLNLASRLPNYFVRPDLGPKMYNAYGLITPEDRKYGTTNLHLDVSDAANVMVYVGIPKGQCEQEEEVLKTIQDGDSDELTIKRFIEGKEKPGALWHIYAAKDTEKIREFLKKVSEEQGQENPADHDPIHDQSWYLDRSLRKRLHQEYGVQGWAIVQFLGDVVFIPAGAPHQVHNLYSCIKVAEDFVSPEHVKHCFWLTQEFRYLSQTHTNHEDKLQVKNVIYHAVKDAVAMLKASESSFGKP
Method in brief: (§1)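 Biotinylated methylated H3 peptides (K9, K4, K27 or K36 marks) served as substrate, with 25 μM L-Asc and 10 μM α-KG. Enzymes were preincubated 10 min, then exposed to compounds (3% DMSO solutions) 10 min; product detected by AlphaLISA acceptor and streptavidin donor beads at room temperature in dark.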

KDM6A (UTX) = KDM6A (UTX) (Homo sapiens, UniProt O15550); experiment: Histone lysine demethylase AlphaLISA assay, KDM6A; format: biochemical; details: read-out: KDM6A HDME Inhibition IC50
Method in brief: as §1

KDM6A (UTX), sequence (O15550 919-1401): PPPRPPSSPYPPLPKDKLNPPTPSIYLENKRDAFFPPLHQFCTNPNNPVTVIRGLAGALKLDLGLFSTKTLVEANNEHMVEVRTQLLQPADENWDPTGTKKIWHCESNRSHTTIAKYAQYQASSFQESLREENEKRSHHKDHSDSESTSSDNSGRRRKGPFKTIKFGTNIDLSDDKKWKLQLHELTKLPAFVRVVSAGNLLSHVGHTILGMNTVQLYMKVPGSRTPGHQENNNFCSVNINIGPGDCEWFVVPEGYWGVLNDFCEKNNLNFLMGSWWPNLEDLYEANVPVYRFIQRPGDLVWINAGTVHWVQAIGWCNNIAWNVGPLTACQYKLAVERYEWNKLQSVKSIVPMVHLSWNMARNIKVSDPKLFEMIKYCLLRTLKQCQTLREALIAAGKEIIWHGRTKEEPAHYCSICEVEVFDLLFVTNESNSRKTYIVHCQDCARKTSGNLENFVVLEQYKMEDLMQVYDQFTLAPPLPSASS

Row | Structure (SMILES) | pIC50 (KDM3A (JMJD1A)) | pIC50 (KDM6A (UTX))
1 | CN(C)CCCCNCc1cc(CN)ccn1 [Compound 2, [2-({[4-(dimethylamino)butyl]-amino}methyl)pyridin-4-yl]methanamine] | < 5.60 | < 5.60
2 | CN(C)CCNCc1ccnc(CNCCCN(C)Cc2ccccc2)c1 [Compound 18, benzyl[3-({[4-({[2-(dimethylamino)ethyl]-amino}methyl)pyridin-2-yl]methyl}-amino)propyl]-methylamine] | < 5.60 | < 5.60
3 | COCCNCc1ccnc(CNCCCN(C)Cc2ccccc2)c1 [Compound 19, benzyl(3-{[(4-{[(2-methoxyethyl)amino]-methyl}pyridin-2-yl)methyl]amino}-propyl)methylamine] | < 5.60 | < 5.60
4 | COc1ccccc1CN1CCC(NC(=O)CNCc2cc(CNC3CC3)ccn2)CC1 [Compound 20, 2-[({4-[(cyclopropylamino)-methyl]pyridin-2-yl}methyl)amino]-N-{1-[(2-methoxyphenyl)methyl]-piperidin-4-yl}acetamide] | < 5.60 | 
5 | CCN(CCN(C)C)C(=O)CN(Cc1cc(CNC(=O)C(F)(F)F)ccn1)C(=O)C(F)(F)F [Compound 26, N-[(2-{[N-({[2-(dimethylamino)ethyl]-(ethyl)carbamoyl}-methyl)-2,2,2-trifluoroacetamido]-methyl}pyridin-4-yl)methyl]-2,2,2-trifIuoroacetamide] |  | < 5.60
6 | COC(=O)CNCc1cc(/C=N/C2CC2)ccn1 [Compound 59, methyl 2-[({4-[N-cyclopropyl-carboximidoyl]pyridin-2-yl}methyl)amino]-acetate] | < 5.60 | < 5.60
7 | CCN(CC)CCCCNCc1cc(C2NCCCN2C)ccn1 (stereo not drawn) [Compound 68, [4-(diethylamino)butyl]({[4-(1-methyl-1,3-diazinan-2-yl)pyridin-2-yl]methyl})amine] |  | < 5.60
8 | O=Cc1ccnc(CNCCCCN(Cc2ccccc2)C2CC2)c1 [Compound 109, 2-[({4-[benzyl-(cyclopropyl)amino]-butyl}amino)methyl]-pyridine-4-carbaldehyde] | < 5.60 | < 5.60
9 | O=Cc1ccnc(CNCC(=O)NC2CCN(Cc3ccccc3)C2)c1 (stereo not drawn) [Compound 113, N-(1-benzylpyrrolidin-3-yl)-2-{[(4-formylpyridin-2-yl)methyl]amino}-acetamide] | < 5.60 | < 5.60
